# Laboratory results as given in article PMC10897212, “Structural insight into the allosteric inhibition of human sodium-calcium exchanger NCX1 by XIP and SEA0400” (The EMBO Journal, 2023).
# Target: T1, Na+/Ca2+ exchanger NCX1.3 (Homo sapiens, UniProt P32418)
# T1 construct: gene SLC8A1; full-length wild-type human NCX1.3 (UniProtKB P32418-2); model residues 51–283, 405–501, 518–637, 654–720, and 736–937
# Assay: cryo-EM structure at […] Å; also CPM thermofluor shift (~[…] °C) and Fura-2 Ca2+ uptake inhibition at […] in HEK293T cells
# Format: binding
smiles,measurement,value
CCOc1ccc(Oc2ccc(OCc3cc(F)ccc3F)cc2)c(N)c1 [SEA0400],cryo-EM structure at 3.5 Å; also CPM thermofluor shift (~10 °C) and Fura-2 Ca2+,"The SEA0400 molecule is allocated within a negatively charged cavity surrounded by TM2ab, TM4, TM5, and TM8"
